Data: US6861409B2, “Growth hormone secretagogues” (Zentaris AG, priority 2000, dated 2005)

Key:
plasma GH concentrations = test: Growth hormone releasing activity in the infant rat (plasma GH by RIA); assay type: in vivo, Sprague Dawley rats; details: Table 1 test series; male 10-day-old rats; 300 μg/kg subcutaneously; plasma 15 min later
Procedure: Male 10-day-old Sprague Dawley rats, about 25 g body weight were used.
One hour before the experiments, pups were separated from their respective dams and were divided randomly into groups of eight each.
Pups were acutely challenged subcutaneously with 100 μl of solvent (DMSO, final dilution 1:300 in physiological saline), hexarelin (Tyr-Ala-His-D-Mrp-Ala-Trp-D-Phe-Lys-NH2, used as a reference drug), or new compounds (300 μg/kg) and killed by decapitation 15 min later.
Trunk blood was collected and centrifuged immediately. Plasma samples were stored at −20° C. until assayed for the determination of plasma GH concentrations.
Growth hormone concentrations in plasma were measured by RIA using materials provided by the National Institute of Diabetes, Digestive and Kidney Diseases (NIDDK) of the National Institute of Health U.S.A.
Values were expressed in terms of the NIDDK-rat-GH-RP-2 standard (potency 21 U/mg) as ng/ml of plasma.
The minimum detectable value of rat GH was about 1.0 ng/ml, and intraassay variability was about 6%.

Concentration GH = test: Time dependence of the oral activity in the dog (plasma GH); assay type: in vivo, dog (beagles); design: AUC (Area under the curve) of GH concentration: unit not given here; details: 1 mg/kg per os
Procedure: Furthermore the time dependence of the oral activity in the dog (1 mg/kg; per os) was estimated for example 1 (H-Aib-D-Trp-D-gTrp-CHO). Well-trained beagles of either sex, >10 year, 10-15 kg by weight, were used. Animals were fed normal dry food with water ad libitum and were on a 12 h-light/12 h-dark regimen with on at 7.00. The compound was administered orally to the dogs which had fasted since 16.00 of the preceding day. Blood samples were taken 20 min before administration, at administration and 15, 30, 60, 90, 120 and 180 min after administration.

## CC(C)(N)C(=O)N[C@H](Cc1c[nH]c2ccccc12)C(=O)N[C@H](Cc1c[nH]c2ccccc12)NC=O [Example 1, H-Aib-D-Trp-D-gTrp-CHO]
Plasma GH concentrations
  GH: 158.8 ± 39.4 ng/mL
Concentration GH; MEAN VALUE of 6 dogs
  AUC (Area under the curve) of GH concentration: 675.35
Concentration GH; MEAN VALUE of 6 dogs, t 0 min (at administration)
  Concentration GH: 1.79 ng/mL
Concentration GH; MEAN VALUE of 6 dogs, t 15 min after administration
  Concentration GH: 5.32 ng/mL
Concentration GH; MEAN VALUE of 6 dogs, t 30 min after administration
  Concentration GH: 5.5 ng/mL
Concentration GH; MEAN VALUE of 6 dogs, t 60 min after administration
  Concentration GH: 3.52 ng/mL
Concentration GH; MEAN VALUE of 6 dogs, t 90 min after administration
  Concentration GH: 3.59 ng/mL
Concentration GH; MEAN VALUE of 6 dogs, t 120 min after administration
  Concentration GH: 3.42 ng/mL
Concentration GH; MEAN VALUE of 6 dogs, t 180 min after administration
  Concentration GH: 3.04 ng/mL
Concentration GH; MEAN VALUE of 6 dogs, t −20 min (before administration)
  Concentration GH: 2.07 ng/mL
Concentration GH; dog DAKOTA
  AUC (Area under the curve) of GH concentration: 328.53
Concentration GH; dog DAKOTA, t 0 min (at administration)
  Concentration GH: 0.35 ng/mL
Concentration GH; dog DAKOTA, t 15 min after administration
  Concentration GH: 2.11 ng/mL
Concentration GH; dog DAKOTA, t 30 min after administration
  Concentration GH: 0.54 ng/mL
Concentration GH; dog DAKOTA, t 60 min after administration
  Concentration GH: 0.17 ng/mL
Concentration GH; dog DAKOTA, t 90 min after administration
  Concentration GH: 0.4 ng/mL
Concentration GH; dog DAKOTA, t 120 min after administration
  Concentration GH: 3.58 ng/mL
Concentration GH; dog DAKOTA, t 180 min after administration
  Concentration GH: 3.46 ng/mL
Concentration GH; dog DAKOTA, t −20 min (before administration)
  Concentration GH: 0.48 ng/mL
Concentration GH; dog FORREST LEE
  AUC (Area under the curve) of GH concentration: 888.91
Concentration GH; dog FORREST LEE, t 0 min (at administration)
  Concentration GH: 2.01 ng/mL
Concentration GH; dog FORREST LEE, t 15 min after administration
  Concentration GH: 6.38 ng/mL
Concentration GH; dog FORREST LEE, t 30 min after administration
  Concentration GH: 8.48 ng/mL
Concentration GH; dog FORREST LEE, t 60 min after administration
  Concentration GH: 4.41 ng/mL
Concentration GH; dog FORREST LEE, t 90 min after administration
  Concentration GH: 6.42 ng/mL
Concentration GH; dog FORREST LEE, t 120 min after administration
  Concentration GH: 3.71 ng/mL
Concentration GH; dog FORREST LEE, t 180 min after administration
  Concentration GH: 3.18 ng/mL
Concentration GH; dog FORREST LEE, t −20 min (before administration)
  Concentration GH: 1.43 ng/mL
Concentration GH; dog JORMA
  AUC (Area under the curve) of GH concentration: 658.38
Concentration GH; dog JORMA, t 0 min (at administration)
  Concentration GH: 2.75 ng/mL
Concentration GH; dog JORMA, t 15 min after administration
  Concentration GH: 8.91 ng/mL
Concentration GH; dog JORMA, t 30 min after administration
  Concentration GH: 6.85 ng/mL
Concentration GH; dog JORMA, t 60 min after administration
  Concentration GH: 2.65 ng/mL
Concentration GH; dog JORMA, t 90 min after administration
  Concentration GH: 2.47 ng/mL
Concentration GH; dog JORMA, t 120 min after administration
  Concentration GH: 2.48 ng/mL
Concentration GH; dog JORMA, t 180 min after administration
  Concentration GH: 2.82 ng/mL
Concentration GH; dog JORMA, t −20 min (before administration)
  Concentration GH: 3.58 ng/mL
Concentration GH; dog MARKUS
  AUC (Area under the curve) of GH concentration: 944.26
Concentration GH; dog MARKUS, t 0 min (at administration)
  Concentration GH: 2.55 ng/mL
Concentration GH; dog MARKUS, t 15 min after administration
  Concentration GH: 6.11 ng/mL
Concentration GH; dog MARKUS, t 30 min after administration
  Concentration GH: 6.9 ng/mL
Concentration GH; dog MARKUS, t 60 min after administration
  Concentration GH: 6.51 ng/mL
Concentration GH; dog MARKUS, t 90 min after administration
  Concentration GH: 5.18 ng/mL
Concentration GH; dog MARKUS, t 120 min after administration
  Concentration GH: 4.54 ng/mL
Concentration GH; dog MARKUS, t 180 min after administration
  Concentration GH: 4.12 ng/mL
Concentration GH; dog MARKUS, t −20 min (before administration)
  Concentration GH: 2.45 ng/mL
Concentration GH; dog RAZ DEGAN
  AUC (Area under the curve) of GH concentration: 510.64
Concentration GH; dog RAZ DEGAN, t 0 min (at administration)
  Concentration GH: 1.64 ng/mL
Concentration GH; dog RAZ DEGAN, t 15 min after administration
  Concentration GH: 3.58 ng/mL
Concentration GH; dog RAZ DEGAN, t 30 min after administration
  Concentration GH: 6.37 ng/mL
Concentration GH; dog RAZ DEGAN, t 60 min after administration
  Concentration GH: 3.02 ng/mL
Concentration GH; dog RAZ DEGAN, t 90 min after administration
  Concentration GH: 2.61 ng/mL
Concentration GH; dog RAZ DEGAN, t 120 min after administration
  Concentration GH: 1.94 ng/mL
Concentration GH; dog RAZ DEGAN, t 180 min after administration
  Concentration GH: 1.49 ng/mL
Concentration GH; dog RAZ DEGAN, t −20 min (before administration)
  Concentration GH: 2.14 ng/mL
Concentration GH; dog TAYLOR
  AUC (Area under the curve) of GH concentration: 721.34
Concentration GH; dog TAYLOR, t 0 min (at administration)
  Concentration GH: 1.41 ng/mL
Concentration GH; dog TAYLOR, t 15 min after administration
  Concentration GH: 4.8 ng/mL
Concentration GH; dog TAYLOR, t 30 min after administration
  Concentration GH: 3.89 ng/mL
Concentration GH; dog TAYLOR, t 60 min after administration
  Concentration GH: 4.34 ng/mL
Concentration GH; dog TAYLOR, t 90 min after administration
  Concentration GH: 4.43 ng/mL
Concentration GH; dog TAYLOR, t 120 min after administration
  Concentration GH: 4.28 ng/mL
Concentration GH; dog TAYLOR, t 180 min after administration
  Concentration GH: 3.18 ng/mL
Concentration GH; dog TAYLOR, t −20 min (before administration)
  Concentration GH: 2.32 ng/mL
